According to patent US20250114486A1, “MARKED FATTY ACID DERIVATIVE, PRECURSOR COMPOUND THEREOF, AND USE THEREOF IN CONTRAST AGENT” (BEIJING NORMAL UNIVERSITY, priority 2022, published 2025):

Assay: In vivo biodistribution of radioactive ^99mTc complexes in female SD rats
Parameters: species or system female Sprague-Dawley (SD) rats
Details: for Biodistribution: Large Intestine / Biodistribution: Small Intestine / Biodistribution: Stomach: unit % ID
Method: Female SD rats (180-220 g, n=3) were fasted for 12 h before the experiment, and the purified radioactive 99mTc complexes 78-81 were prepared into physiological saline (containing 10% ethanol) solutions of about 250-350 μCi/mL. 200 μL of the above solution was injected into the tail vein of female SD rats, and the rats were killed by cervical dislocation at five time points, 15, 30, 60, 120 and 240 min after the tail vein injection. The blood, brain, heart, liver, spleen, lung, kidney, muscle, bone, large intestine, small intestine, stomach and tail were collected, weighed and counted, and the count distribution of each tissue and organ was calculated (unit: % ID/g, the unit of large intestine, small intestine and stomach is % ID), and the data are the mean±standard deviation of three mice in each phase. At the same time, 200 μL of the above solution was diluted to 20 mL, which was used as the % ID without deducting the tail count.

## COC(C)(C)C[N+]#[C][99Tc-5]([C]#[N+]CC(C)(C)OC)([C]#[N+]CC(C)(C)OC)([C]#[N+]CC(C)(C)OC)([C]#[N+]CC(C)(C)OC)[C]#[N+]CC(C)(C)OCCSCCCCC(=O)O [^99mTc complex 78]
  absolute myocardial uptake values (comparison with complexes 79-81): lower than the above values
  heart-to-liver ratios (comparison with complexes 79-81): lower than the above values

## COC(C)(C)C[N+]#[C][99Tc-5]([C]#[N+]CC(C)(C)OC)([C]#[N+]CC(C)(C)OC)([C]#[N+]CC(C)(C)OC)([C]#[N+]CC(C)(C)OC)[C]#[N+]CC(C)(C)OCCCCSCCCCC(=O)O [^99mTc complex 79]
15 min post-injection
  Biodistribution: Blood: 0.11 ± 0.02 ID %/g
  Biodistribution: Bone: 0.13 ± 0.02 ID %/g
  Biodistribution: Brain: 0.021 ± 0.005 ID %/g
  Biodistribution: Heart: 1.50 ± 0.27 ID %/g
  Biodistribution: Kidney: 4.87 ± 0.72 ID %/g
  Biodistribution: Liver: 1.28 ± 0.19 ID %/g
  Biodistribution: Lungs: 0.30 ± 0.06 ID %/g
  Biodistribution: Muscle: 0.24 ± 0.06 ID %/g
  Biodistribution: Spleen: 0.52 ± 0.10 ID %/g
  Heart-to-Blood ratio: 13.99 ± 3.55
  Heart-to-Liver ratio: 1.22 ± 0.33
  Heart-to-Lungs ratio: 5.16 ± 0.69
  absolute myocardial uptake value: 1.50±0.27 % ID/g
  Biodistribution: Large Intestine: 0.76 ± 0.20 % ID
  Biodistribution: Small Intestine: 14.70 ± 0.78 % ID
  Biodistribution: Stomach: 0.51 ± 0.05 % ID
30 min post-injection
  Biodistribution: Blood: 0.09 ± 0.01 ID %/g
  Biodistribution: Bone: 0.09 ± 0.01 ID %/g
  Biodistribution: Brain: 0.012 ± 0.005 ID %/g
  Biodistribution: Heart: 2.24 ± 0.31 ID %/g
  Biodistribution: Kidney: 3.37 ± 0.38 ID %/g
  Biodistribution: Liver: 1.38 ± 0.16 ID %/g
  Biodistribution: Lungs: 0.27 ± 0.03 ID %/g
  Biodistribution: Muscle: 0.81 ± 0.14 ID %/g
  Biodistribution: Spleen: 0.16 ± 0.01 ID %/g
  Heart-to-Blood ratio: 25.88±5.10
  Heart-to-Liver ratio: 1.63 ± 0.27
  absolute myocardial uptake value: 2.24±0.31 % ID/g
  Biodistribution: Large Intestine: 12.06 ± 3.78 % ID
  Biodistribution: Small Intestine: 25.98 ± 3.13 % ID
  Biodistribution: Stomach: 0.47 ± 0.15 % ID
60 min post-injection
  Biodistribution: Blood: 0.04 ± 0.01 ID %/g
  Biodistribution: Bone: 0.05 ± 0.01 ID %/g
  Biodistribution: Brain: 0.009 ± 0.001 ID %/g
  Biodistribution: Heart: 2.45 ± 0.35 ID %/g
  Biodistribution: Kidney: 1.65 ± 0.53 ID %/g
  Biodistribution: Liver: 0.66 ± 0.12 ID %/g
  Biodistribution: Lungs: 0.14 ± 0.02 ID %/g
  Biodistribution: Muscle: 0.47 ± 0.10 ID %/g
  Biodistribution: Spleen: 0.09 ± 0.02 ID %/g
  Heart-to-Blood ratio: 56.19±13.56
  Heart-to-Liver ratio: 3.82±1.21
  Heart-to-Lungs ratio: 17.12±3.09
  absolute myocardial uptake value: 2.45±0.35 % ID/g
  Biodistribution: Large Intestine: 16.70 ± 2.72 % ID
  Biodistribution: Small Intestine: 22.54 ± 5.67 % ID
  Biodistribution: Stomach: 0.19 ± 0.06 % ID
120 min post-injection
  Biodistribution: Blood: 0.012 ± 0.002 ID %/g
  Biodistribution: Bone: 0.04 ± 0.01 ID %/g
  Biodistribution: Brain: 0.009 ± 0.002 ID %/g
  Biodistribution: Heart: 1.54 ± 0.45 ID %/g
  Biodistribution: Kidney: 0.65 ± 0.14 ID %/g
  Biodistribution: Liver: 0.28 ± 0.01 ID %/g
  Biodistribution: Lungs: 0.11 ± 0.03 ID %/g
  Biodistribution: Muscle: 0.21 ± 0.05 ID %/g
  Biodistribution: Spleen: 0.05 ± 0.01 ID %/g
  Heart-to-Blood ratio: 118.25±44.79
  Heart-to-Liver ratio: 5.55±1.38
  Heart-to-Lungs ratio: 15.05±5.27
  absolute myocardial uptake value: 1.54 0.45 % ID/g
  Biodistribution: Large Intestine: 27.61 ± 2.20 % ID
  Biodistribution: Small Intestine: 5.24 ± 0.78 % ID
  Biodistribution: Stomach: 0.22 ± 0.03 % ID
240 min post-injection
  Biodistribution: Blood: 0.025 ± 0.003 ID %/g
  Biodistribution: Bone: 0.13 ± 0.03 ID %/g
  Biodistribution: Brain: 0.007 ± 0.002 ID %/g
  Biodistribution: Heart: 0.60 ± 0.04 ID %/g
  Biodistribution: Kidney: 0.22 ± 0.02 ID %/g
  Biodistribution: Liver: 0.24 ± 0.01 ID %/g
  Biodistribution: Lungs: 0.09 ± 0.01 ID %/g
  Biodistribution: Muscle: 0.27 ± 0.02 ID %/g
  Biodistribution: Spleen: 0.11 ± 0.01 ID %/g
  Heart-to-Blood ratio: 24.36±1.72
  Heart-to-Liver ratio: 2.45 ± 0.18
  Heart-to-Lungs ratio: 6.66±0.60
  absolute myocardial uptake value: 0.60±0.04 % ID/g
  Biodistribution: Large Intestine: 33.40 ± 4.10 % ID
  Biodistribution: Small Intestine: 4.53 ± 0.88 % ID
  Biodistribution: Stomach: 0.20 ± 0.02 % ID
Peak at 60 min post-injection
  absolute myocardial uptake peak value: 2.45±0.35 % ID/g
